Source: PMC9501810, “Bitter Peptides YFYPEL, [sequence], and [sequence], Released during Gastric Digestion of Casein, Stimulate Mechanisms of Gastric Acid Secretion via Bitter Taste Receptors TAS2R16 and TAS2R38” (Journal of Agricultural and Food Chemistry, 2022)
Where “and” joins values, the source holds several entries; their conditions need not be identical. Equal values may be shown once.

Experiments:
Format in all cases: cell-based, human
[1] = system: HGT-1 cells; experiment: Proton secretion assay (intracellular proton index IPX, SNARF-1-AM)
Protocol: The measurement of proton secretion from HGT-1 cells represents a well-established model for the identification of bitter compounds. By affecting extraoral bitter taste receptors with bitter compounds, a modulatory effect on proton secretion can be measured. For this purpose, cells were washed with KRHB and incubated with 3 μM of the intracellular pH indicator 1,5 carboxy-seminaphto-rhodafluor acetoxymethyl ester (SNARF-1-AM) under standard conditions. After 30 min, the cells were washed again with KRHB and then incubated with casein (0.01–10 μM equimolar related to the relevant forms αS1- and β-casein), hydrolysate (0.01–10 μM), or the peptides (0.01–200 μM). […] All substances were dissolved and diluted in KRHB. 1 mM histamine was used as a positive control. Measurements were performed using FlexStation 3 (Molecular Devices, USA). The excitation wavelength was 488 nm, and the emission wavelengths were 580 and 640 nm. For calibration (pH range 7.0–8.0), the intracellular and extracellular pH was adjusted with 2 μM nigericin in potassium buffer (20 mM NaCl, 110 mM KCl, 1 mM CaCl2, 1 mM MgSO4, 18 mM D-glucose, and 20 mM HEPES). The intracellular proton index (IPX) was calculated as the log2 value of the 580/640 ratio and compared with cells without treatment. Negative values represent increased secretion of protons and therefore stimulation of mechanisms regulating gastric acid secretion in HGT-1 cells. In contrast, positive values represent an inhibition of secretion compared to the untreated control.

[2] = system: TAS2R5; experiment: RT-qPCR gene expression of TAS2R5 in HGT-1 cells; conditions: VAPFPEVF 17.5 µM, YFYPEL 0.03 µM, YQEPVLGPVRGPFPIIV 0.4 µM, normalized to PPIA and GAPDH and untreated cells, mean, n = 3–5
Protocol: (§1) For mRNA expression analysis, 800,000 cells were seeded in a T25 cell culture flask (25 cm^2) 1 day before the experiment. After incubation with 17.5 μM […], 0.03 μM YFYPEL, or 0.4 μM […] for 15, 30, 60, and 120 min, RNA was isolated using the peqGOLD RNA Kit (VWR Peqlab, USA) following the manufacturer’s protocol. Determination of RNA concentration (A260/A280 between 2.03 and 2.09) was performed on a NanoDrop One^c (Thermo Fisher Scientific Inc., USA). RNA integrity number (RIN 9.9–10.0, version 2.6, assay class Eukaryote Total RNA Nano) was analyzed using a 2100 Bioanalyzer (Agilent Technologies, USA). Removal of gDNA and synthesis of cDNA were performed using the iScript gDNA Clear cDNA Synthesis Kit (BioRad, Feldkirchen, Germany) following the manufacturer’s protocol. Real-time-qPCR (RT-qPCR) was performed with 50 ng cDNA amplified with SsoAdvanced Universal SYBR Green Supermix (Bio-Rad Laboratories, Inc., USA). The sequences of the forward and reverse primers of the 25 TAS2Rs were taken from Liszt et al.([13]) (Supporting Information Table-SI 3). Verified primers for the TAS1Rs (TAS1R1: qHsaCID0013443; TAS1R2: qHsaCID0016106; TAS1R3: qHsaCED0002321) and for MAPK1 (qHsaCEP0050000) were obtained from Bio-Rad Laboratories. PPIA[37] and GAPDH[38] were used as reference genes. The effects of the peptides on gene expression were analyzed in comparison to untreated control cells.

[3] = system: TAS2R16; experiment: RT-qPCR gene expression of TAS2R16 in HGT-1 cells; conditions: VAPFPEVF 17.5 µM, YFYPEL 0.03 µM, YQEPVLGPVRGPFPIIV 0.4 µM, normalized to PPIA and GAPDH and untreated cells, mean, n = 3–5
Protocol: as §1, with “cells. […]” for “cells.”

[4] = system: TAS2R30; experiment: RT-qPCR gene expression of TAS2R30 in HGT-1 cells; conditions: VAPFPEVF 17.5 µM, YFYPEL 0.03 µM, YQEPVLGPVRGPFPIIV 0.4 µM, normalized to PPIA and GAPDH and untreated cells, mean, n = 3–5
Protocol: as §1

[5] = system: TAS2R31; experiment: RT-qPCR gene expression of TAS2R31 in HGT-1 cells; conditions: VAPFPEVF 17.5 µM, YFYPEL 0.03 µM, YQEPVLGPVRGPFPIIV 0.4 µM, normalized to PPIA and GAPDH and untreated cells, mean, n = 3–5
Protocol: as §1

[6] = system: TAS2R38; experiment: RT-qPCR gene expression of TAS2R38 in HGT-1 cells; conditions: VAPFPEVF 17.5 µM, YFYPEL 0.03 µM, YQEPVLGPVRGPFPIIV 0.4 µM, normalized to PPIA and GAPDH and untreated cells, mean, n = 3–5
Protocol: as §1, with “cells. […]” for “cells.”

[7] = system: TAS2R42; experiment: RT-qPCR gene expression of TAS2R42 in HGT-1 cells; conditions: VAPFPEVF 17.5 µM, YFYPEL 0.03 µM, YQEPVLGPVRGPFPIIV 0.4 µM, normalized to PPIA and GAPDH and untreated cells, mean, n = 3–5
Protocol: as §1

[8] = system: TAS2R43; experiment: RT-qPCR gene expression of TAS2R43 in HGT-1 cells; conditions: VAPFPEVF 17.5 µM, YFYPEL 0.03 µM, YQEPVLGPVRGPFPIIV 0.4 µM, normalized to PPIA and GAPDH and untreated cells, mean, n = 3–5
Protocol: as §1

[9] = system: TAS1R1; experiment: RT-qPCR gene expression of TAS1R1 in HGT-1 cells; conditions: 15/30/60/120 min, VAPFPEVF 17.5 µM, YQEPVLGPVRGPFPIIV 0.4 µM, n = 3
Protocol: as §1

VAPFPEVF [bitter casein peptide αS1-CN25–32]
ΔIPX (change in intracellular proton index vs untreated cells) ([1]; 10 µM, 10 min incubation in KRHB, negative = stimulated, positive = inhibited proton secretion, mean ± SEM, n = 4–8): −0.286 ± 0.037
proton secretion with peptide alone compared to untreated control cells ([1]; VAPFPEVF 17.5 µM, YFYPEL 0.03 µM, YQEPVLGPVRGPFPIIV 0.4 µM, 10 min, p < 0.01): increased proton secretion
concentration with the lowest IPX value (minimum of curve fit; highest impact on secretory activity) ([1]; curve fit over 0.01–200 µM proton secretion profile): 17.5 µM
ΔIPX on co-incubation with probenecid ([1]; peptide (VAPFPEVF 17.5 µM, YFYPEL 0.03 µM, YQEPVLGPVRGPFPIIV 0.4 µM) + 1 mM probenecid, 10 min, vs untreated cells, mean ± SEM): +0.043 ± 0.031
change in gene expression of TAS2R5 ([2]; incubation 15 min): 0.91 fold change
change in gene expression of TAS2R5 ([2]; incubation 30 min): 1.05 fold change
change in gene expression of TAS2R5 ([2]; incubation 60 min): 0.93 fold change
change in gene expression of TAS2R5 ([2]; incubation 120 min): 1.23 fold change
change in gene expression of TAS2R16 ([3]; incubation 15 min): 1.50 fold change
change in gene expression of TAS2R16 ([3]; incubation 30 min): 3.70 fold change and 3.70 ± 0.97 fold change
change in gene expression of TAS2R16 ([3]; incubation 60 min): 1.65 fold change
change in gene expression of TAS2R16 ([3]; incubation 120 min): 2.88 fold change
change in gene expression of TAS2R30 ([4]; incubation 15 min): 0.56 fold change
change in gene expression of TAS2R30 ([4]; incubation 30 min): 1.53 fold change
change in gene expression of TAS2R30 ([4]; incubation 60 min): 0.75 fold change
change in gene expression of TAS2R30 ([4]; incubation 120 min): 1.62 fold change
change in gene expression of TAS2R31 ([5]; incubation 15 min): 0.66 fold change
change in gene expression of TAS2R31 ([5]; incubation 30 min): 1.14 fold change
change in gene expression of TAS2R31 ([5]; incubation 60 min): 0.70 fold change
change in gene expression of TAS2R31 ([5]; incubation 120 min): 1.22 fold change
change in gene expression of TAS2R38 ([6]; incubation 15 min): 1.31 fold change
change in gene expression of TAS2R38 ([6]; incubation 30 min): 2.42 fold change and 2.42 ± 0.55 fold change
change in gene expression of TAS2R38 ([6]; incubation 60 min): 1.15 fold change
change in gene expression of TAS2R38 ([6]; incubation 120 min): 2.45 fold change and 2.45 ± 0.26 fold change
change in gene expression of TAS2R42 ([7]; incubation 15 min): 0.52 fold change
change in gene expression of TAS2R42 ([7]; incubation 30 min): 0.88 fold change
change in gene expression of TAS2R42 ([7]; incubation 60 min): 0.71 fold change
change in gene expression of TAS2R42 ([7]; incubation 120 min): 1.20 fold change
change in gene expression of TAS2R43 ([8]; incubation 15 min): 0.57 fold change
change in gene expression of TAS2R43 ([8]; incubation 30 min): 1.14 fold change
change in gene expression of TAS2R43 ([8]; incubation 60 min): 0.72 fold change
change in gene expression of TAS2R43 ([8]; incubation 120 min): 1.49 fold change
change in expression of TAS1R1 [9]: no significant effect
